Results published in article PMC11062922 (Nature Chemical Biology, 2023).
Like-named read-outs stand apart in the source and are kept apart here.

Assays:
EPHB6 = target: T1, EPHB6 (Homo sapiens, UniProt O15197); test: Kinobeads two-dose competition binding: EPHB6
T1 construct: to maximize the representation of endogenous proteins; endogenous in cells
T1 sequence (O15197 32-1021): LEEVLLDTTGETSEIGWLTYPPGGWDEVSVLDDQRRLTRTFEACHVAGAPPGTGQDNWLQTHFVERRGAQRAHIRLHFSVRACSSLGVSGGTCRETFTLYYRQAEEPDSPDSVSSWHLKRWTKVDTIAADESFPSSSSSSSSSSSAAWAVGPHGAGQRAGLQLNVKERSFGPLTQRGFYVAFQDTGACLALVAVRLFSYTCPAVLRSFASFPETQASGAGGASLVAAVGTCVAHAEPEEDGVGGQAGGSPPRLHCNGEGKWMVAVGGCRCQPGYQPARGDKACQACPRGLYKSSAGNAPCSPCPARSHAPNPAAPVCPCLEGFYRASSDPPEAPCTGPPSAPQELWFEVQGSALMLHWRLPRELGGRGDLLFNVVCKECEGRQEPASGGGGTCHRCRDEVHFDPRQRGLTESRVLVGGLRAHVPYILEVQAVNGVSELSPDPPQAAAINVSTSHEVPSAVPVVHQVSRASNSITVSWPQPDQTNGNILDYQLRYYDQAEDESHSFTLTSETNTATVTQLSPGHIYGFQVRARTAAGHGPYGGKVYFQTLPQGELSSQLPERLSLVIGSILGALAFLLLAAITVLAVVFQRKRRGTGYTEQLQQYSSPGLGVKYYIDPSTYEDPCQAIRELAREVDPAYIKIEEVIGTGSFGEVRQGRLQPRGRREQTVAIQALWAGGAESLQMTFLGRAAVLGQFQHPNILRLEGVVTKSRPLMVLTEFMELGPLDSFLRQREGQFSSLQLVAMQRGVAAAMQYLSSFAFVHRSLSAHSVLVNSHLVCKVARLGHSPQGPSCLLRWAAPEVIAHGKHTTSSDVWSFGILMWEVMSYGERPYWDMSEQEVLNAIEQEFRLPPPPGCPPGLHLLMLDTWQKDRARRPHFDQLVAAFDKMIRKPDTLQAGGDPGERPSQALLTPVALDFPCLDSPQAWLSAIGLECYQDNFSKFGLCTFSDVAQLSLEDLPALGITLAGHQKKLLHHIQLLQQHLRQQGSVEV
From the text: Briefly, Kinobeads comprise seven broad-spectrum small molecule kinase inhibitors immobilized on Sepharose beads. […]. Compounds of interest are set to compete for target protein binding with Kinobeads in the lysate and the amount of a given protein bound to Kinobeads in the presence of a compound can be quantified relative to a dimethylsulfoxide (DMSO) vehicle control by label-free mass spectrometry. This assay measures the physical interaction of a compound with thousands of endogenous proteins in parallel and, when systematically increasing the concentration of competitor, enables the calculation of an apparent interaction constant ( Kdapp ) for each compound and protein.
Kinobeads pulldown experiments were performed as described previously[13],[14],[17] with minor modification. […] The protein concentration was adjusted to 5 mg ml^−1. Kinase inhibitors were spiked into 0.5 ml of cell lysate at final concentrations of 100 and 1,000 nM (or DMSO, 0.3, 1, 3, 10, 30, 100, 300 and 1,000 nM for full dose experiments). […] Lysates were incubated for 45 min at 4 °C. Subsequently, lysates were incubated with Kinobeads ε (17.5 µl of settled beads) for 30 min at 4 °C. To assess the degree of protein depletion from the lysates by Kinobeads, the flow through of the DMSO control was recovered for a pulldown of pulldown experiment where the lysate was incubated a second time with fresh Kinobeads. Beads were washed in three steps with buffer containing 0.4%, 0.2% and no IGEPAL. Bound proteins were reduced with 50 mM DTT in 8 M Urea, 40 mM Tris-HCl pH 7.4 for 30 min at room temperature. After alkylation with 55 mM chloroacetamide, the urea concentration was reduced to 1–2 M and proteins were digested with trypsin. Acidified peptides were desalted and concentrated using SepPak tC18 µEluation plates (Waters). Samples were frozen, dried by vacuum centrifugation and stored at −20 °C.
Each kinase inhibitor was processed together with all DMSO controls of the same plate. Additionally, each search was supplemented with five high quality DMSO controls for consistent peptide identification and protein grouping. The resultant file (proteinGroups.txt) was used for subsequent filtering, normalization, data visualization and target annotation that was automatically performed by a data processing pipeline built in house that used R (including the ‘drc’ and ‘heatmap’ packages). First, reverse hits, potential contaminants and not quantified proteins in the DMSO control samples were discarded. Protein raw and label-free quantification intensities were normalized to the median DMSO control intensity to obtain relative residual binding intensities for each protein group at every inhibitor concentration and standard deviations of the DMSO control intensity were calculated. IC50 values were estimated based on the following equation IC50=I×100−inhibition/inhibition where [I] is the inhibitor concentration that was used for IC50 calculation and ‘inhibition’ the relative residual binding intensity. […]. Estimated Kdapp values were then calculated by multiplying the estimated IC50 values with a protein-dependent correction factor that was limited to a maximum value of one. The correction factor accounts for the depletion of a target protein from the lysate by Kinobeads. The depletion can be measured by the ratio of the amount of protein captured in two consecutive pulldowns of the same DMSO control lysate. In this study, correction factors were determined in separate experiments using the same lysate mixture and the same bead batch. Correction factors were set to the median of all correction factors. Targets of kinase inhibitors were annotated using the previously published random forest classifier. A training data set was annotated manually. […]

ACOX1 = target: T2, ACOX1 (Homo sapiens, UniProt Q15067); test: Kinobeads two-dose competition binding: ACOX1; details: for CATDS: sheet CATDS matrix 2, Gene Name ACOX1;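 as to all read-outs here: competition of compounds with immobilized broad-spectrum kinase inhibitor beads in cell lysate at 100 and 1,000 nM, 45 min at 4 °C, bead-bound protein quantified by label-free MS versus DMSO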
T2 construct: endogenous in cells
T2 sequence (Q15067 1-660): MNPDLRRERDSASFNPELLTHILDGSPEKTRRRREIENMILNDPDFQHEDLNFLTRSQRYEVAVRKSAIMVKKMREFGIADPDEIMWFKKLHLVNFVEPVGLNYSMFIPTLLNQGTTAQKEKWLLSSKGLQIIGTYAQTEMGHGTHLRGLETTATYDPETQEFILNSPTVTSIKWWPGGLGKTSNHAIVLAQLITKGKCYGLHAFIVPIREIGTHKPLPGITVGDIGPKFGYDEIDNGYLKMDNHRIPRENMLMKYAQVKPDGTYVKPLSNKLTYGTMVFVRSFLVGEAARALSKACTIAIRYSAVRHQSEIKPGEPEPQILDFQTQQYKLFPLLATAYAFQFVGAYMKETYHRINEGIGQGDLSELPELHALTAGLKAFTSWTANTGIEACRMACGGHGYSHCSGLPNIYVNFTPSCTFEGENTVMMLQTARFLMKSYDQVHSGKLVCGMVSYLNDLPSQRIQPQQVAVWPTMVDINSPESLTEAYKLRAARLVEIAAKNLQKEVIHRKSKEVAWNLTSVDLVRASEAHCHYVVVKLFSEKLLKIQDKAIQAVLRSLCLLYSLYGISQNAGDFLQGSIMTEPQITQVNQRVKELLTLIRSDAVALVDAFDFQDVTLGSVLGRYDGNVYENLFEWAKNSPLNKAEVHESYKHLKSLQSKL

AAK1 = target: T3, AAK1 (Homo sapiens, UniProt Q2M2I8); test: Kinobeads two-dose competition binding: AAK1; details: for potency estimated from few doses: sheet "Kinobeads Drugmatrix - all", unit inferred, same values below 1000 recur in sheet "nanomolar", read-out: Kinobeads Drugmatrix - all: apparent Kd, AAK1; for CATDS: sheet CATDS matrix 2, Gene Name AAK1;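 as to all read-outs here: kinobeads competition pulldown from cell lysate, compound preincubated 45 min at 4 °C, bead-bound protein measured by label-free mass spectrometry against DMSO vehicle control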
T3 construct: to maximize the representation of endogenous proteins; endogenous in cells

ACAD11 [1] = target: T4, ACAD11 (Homo sapiens, UniProt Q709F0); test: Kinobeads two-dose competition binding: ACAD11; details: sheet "Kinobeads Drugmatrix - all"; unit inferred; read-out: Kinobeads Drugmatrix - all: apparent Kd, ACAD11
T4 construct: endogenous in cells
T4 sequence (Q709F0 1-780): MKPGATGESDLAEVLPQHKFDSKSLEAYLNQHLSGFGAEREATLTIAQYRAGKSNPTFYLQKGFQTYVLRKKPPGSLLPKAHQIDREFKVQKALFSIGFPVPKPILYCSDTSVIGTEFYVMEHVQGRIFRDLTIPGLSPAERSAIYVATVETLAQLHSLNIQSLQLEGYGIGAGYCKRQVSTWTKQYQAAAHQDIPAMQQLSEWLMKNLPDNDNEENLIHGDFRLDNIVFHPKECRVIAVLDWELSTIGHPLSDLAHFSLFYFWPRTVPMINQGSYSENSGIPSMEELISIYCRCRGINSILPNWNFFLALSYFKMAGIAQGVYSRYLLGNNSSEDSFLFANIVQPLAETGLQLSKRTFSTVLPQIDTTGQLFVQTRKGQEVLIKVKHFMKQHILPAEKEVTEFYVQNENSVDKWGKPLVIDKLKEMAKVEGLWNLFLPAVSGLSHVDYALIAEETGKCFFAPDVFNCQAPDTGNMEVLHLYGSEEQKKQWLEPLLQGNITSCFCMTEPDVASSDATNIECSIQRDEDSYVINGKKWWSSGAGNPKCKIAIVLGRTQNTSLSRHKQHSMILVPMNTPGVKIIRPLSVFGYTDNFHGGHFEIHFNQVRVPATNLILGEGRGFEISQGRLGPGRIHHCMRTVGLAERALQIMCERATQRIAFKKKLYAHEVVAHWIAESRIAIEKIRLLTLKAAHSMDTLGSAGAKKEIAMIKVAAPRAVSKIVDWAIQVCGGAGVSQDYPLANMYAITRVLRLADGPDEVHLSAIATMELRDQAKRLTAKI

ABL1 = ABL1 (Homo sapiens, UniProt P00519); test: Kinobeads two-dose competition binding: ABL1; details: sheet CATDS matrix 2; Gene Name ABL1
ABL2 = target: T5, ABL2 (Homo sapiens, UniProt P42684); test: Kinobeads two-dose competition binding: ABL2; details: sheet CATDS matrix 2; Gene Name ABL2
T5 construct: endogenous in cells

ACAD11 [2] = target: T4, ACAD11; test: Kinobeads two-dose competition binding: ACAD11; details: sheet CATDS matrix 2; Gene Name ACAD11
GRK6 = target: T6, GRK6 (Homo sapiens, UniProt P43250); test: Kinobeads two-dose competition binding: GRK6; details: Kinobeads two-dose, Drugmatrix - all 2; read-out: apparent Kd GRK6
T6 construct: endogenous in cells

ABCD3 = target: T7, ABCD3 (Homo sapiens, UniProt P28288); test: Kinobeads two-dose competition binding: ABCD3; details: sheet "Kinobeads Drugmatrix - all"; unit inferred; read-out: Kinobeads Drugmatrix - all: apparent Kd, ABCD3
T7 construct: endogenous in cells
T7 sequence (P28288 1-659): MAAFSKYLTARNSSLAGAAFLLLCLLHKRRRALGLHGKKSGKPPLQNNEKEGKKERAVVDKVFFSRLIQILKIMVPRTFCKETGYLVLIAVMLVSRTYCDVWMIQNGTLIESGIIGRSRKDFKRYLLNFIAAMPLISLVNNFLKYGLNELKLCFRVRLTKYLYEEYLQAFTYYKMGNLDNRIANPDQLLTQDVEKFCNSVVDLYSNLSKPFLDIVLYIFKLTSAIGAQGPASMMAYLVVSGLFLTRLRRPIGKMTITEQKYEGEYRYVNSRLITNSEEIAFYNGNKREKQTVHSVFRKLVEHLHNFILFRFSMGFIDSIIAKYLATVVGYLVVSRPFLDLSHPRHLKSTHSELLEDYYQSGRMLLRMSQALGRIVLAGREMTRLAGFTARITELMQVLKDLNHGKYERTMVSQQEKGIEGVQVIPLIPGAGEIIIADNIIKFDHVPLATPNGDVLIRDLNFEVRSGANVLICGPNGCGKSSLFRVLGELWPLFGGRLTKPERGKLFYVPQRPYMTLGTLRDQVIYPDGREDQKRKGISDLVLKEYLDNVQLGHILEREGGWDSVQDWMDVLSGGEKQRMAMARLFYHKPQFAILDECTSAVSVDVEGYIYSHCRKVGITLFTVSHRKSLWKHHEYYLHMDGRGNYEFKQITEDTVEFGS

FLT3 = test: Kinobeads two-dose competition binding: FLT3; parameters: species or system human
[3] = selectivity score from Kinobeads two-dose data

Sequence of ABL1 (P00519 28-1130 limits assumed): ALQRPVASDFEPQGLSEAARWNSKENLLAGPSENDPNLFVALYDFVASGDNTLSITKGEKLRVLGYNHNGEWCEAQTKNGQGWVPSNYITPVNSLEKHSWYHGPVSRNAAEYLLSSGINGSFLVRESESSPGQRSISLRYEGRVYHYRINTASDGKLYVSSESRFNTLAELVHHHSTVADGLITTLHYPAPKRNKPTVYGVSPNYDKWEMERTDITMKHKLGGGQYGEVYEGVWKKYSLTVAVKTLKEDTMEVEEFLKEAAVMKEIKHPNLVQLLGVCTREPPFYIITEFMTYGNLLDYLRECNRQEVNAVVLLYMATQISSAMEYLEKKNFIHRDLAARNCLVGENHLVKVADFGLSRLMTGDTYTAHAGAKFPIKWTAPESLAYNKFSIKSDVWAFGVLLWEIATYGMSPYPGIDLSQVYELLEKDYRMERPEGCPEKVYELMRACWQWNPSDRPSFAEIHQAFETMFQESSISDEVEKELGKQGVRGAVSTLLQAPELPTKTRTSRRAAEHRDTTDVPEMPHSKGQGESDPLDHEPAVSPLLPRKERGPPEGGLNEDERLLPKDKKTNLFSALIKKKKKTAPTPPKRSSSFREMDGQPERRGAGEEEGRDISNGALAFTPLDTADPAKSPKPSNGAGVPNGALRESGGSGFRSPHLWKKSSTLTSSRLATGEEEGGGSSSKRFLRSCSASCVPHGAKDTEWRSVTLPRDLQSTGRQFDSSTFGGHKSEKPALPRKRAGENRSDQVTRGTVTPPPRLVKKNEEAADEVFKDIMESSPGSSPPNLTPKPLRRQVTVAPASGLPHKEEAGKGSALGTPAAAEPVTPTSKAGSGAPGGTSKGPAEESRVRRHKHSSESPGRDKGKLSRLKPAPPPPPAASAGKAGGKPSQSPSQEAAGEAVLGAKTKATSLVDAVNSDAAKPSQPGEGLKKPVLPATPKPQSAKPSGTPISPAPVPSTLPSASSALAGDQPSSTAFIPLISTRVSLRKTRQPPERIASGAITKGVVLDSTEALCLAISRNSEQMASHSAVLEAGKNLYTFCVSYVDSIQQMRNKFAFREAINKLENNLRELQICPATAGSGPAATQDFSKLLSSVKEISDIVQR
T3 sequence (Q2M2I8 whole entry): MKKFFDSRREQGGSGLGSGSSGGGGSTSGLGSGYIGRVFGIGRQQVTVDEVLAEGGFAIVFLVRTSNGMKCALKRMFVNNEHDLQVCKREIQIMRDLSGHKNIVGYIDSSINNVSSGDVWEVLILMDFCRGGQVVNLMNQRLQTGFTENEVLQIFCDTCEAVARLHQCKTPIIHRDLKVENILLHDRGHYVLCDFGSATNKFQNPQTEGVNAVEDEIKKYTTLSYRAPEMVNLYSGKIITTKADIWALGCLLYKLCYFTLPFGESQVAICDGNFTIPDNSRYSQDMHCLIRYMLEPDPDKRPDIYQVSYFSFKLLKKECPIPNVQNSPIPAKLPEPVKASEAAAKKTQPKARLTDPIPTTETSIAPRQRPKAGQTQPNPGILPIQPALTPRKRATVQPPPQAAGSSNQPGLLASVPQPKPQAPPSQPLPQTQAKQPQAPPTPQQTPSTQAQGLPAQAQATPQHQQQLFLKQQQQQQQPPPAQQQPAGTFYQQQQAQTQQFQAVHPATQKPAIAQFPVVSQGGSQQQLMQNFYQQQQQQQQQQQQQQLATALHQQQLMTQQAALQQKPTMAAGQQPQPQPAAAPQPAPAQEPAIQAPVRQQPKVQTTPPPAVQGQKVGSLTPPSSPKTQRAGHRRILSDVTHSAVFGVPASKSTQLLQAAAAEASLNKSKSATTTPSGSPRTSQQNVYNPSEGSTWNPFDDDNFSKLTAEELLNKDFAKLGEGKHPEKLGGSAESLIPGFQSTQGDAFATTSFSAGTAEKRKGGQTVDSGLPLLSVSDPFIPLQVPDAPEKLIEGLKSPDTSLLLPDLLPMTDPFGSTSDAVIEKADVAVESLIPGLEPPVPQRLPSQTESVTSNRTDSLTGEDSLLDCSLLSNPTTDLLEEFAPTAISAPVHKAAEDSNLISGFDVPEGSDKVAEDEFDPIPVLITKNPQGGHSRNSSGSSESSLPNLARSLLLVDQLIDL
T5 sequence (P42684 whole entry): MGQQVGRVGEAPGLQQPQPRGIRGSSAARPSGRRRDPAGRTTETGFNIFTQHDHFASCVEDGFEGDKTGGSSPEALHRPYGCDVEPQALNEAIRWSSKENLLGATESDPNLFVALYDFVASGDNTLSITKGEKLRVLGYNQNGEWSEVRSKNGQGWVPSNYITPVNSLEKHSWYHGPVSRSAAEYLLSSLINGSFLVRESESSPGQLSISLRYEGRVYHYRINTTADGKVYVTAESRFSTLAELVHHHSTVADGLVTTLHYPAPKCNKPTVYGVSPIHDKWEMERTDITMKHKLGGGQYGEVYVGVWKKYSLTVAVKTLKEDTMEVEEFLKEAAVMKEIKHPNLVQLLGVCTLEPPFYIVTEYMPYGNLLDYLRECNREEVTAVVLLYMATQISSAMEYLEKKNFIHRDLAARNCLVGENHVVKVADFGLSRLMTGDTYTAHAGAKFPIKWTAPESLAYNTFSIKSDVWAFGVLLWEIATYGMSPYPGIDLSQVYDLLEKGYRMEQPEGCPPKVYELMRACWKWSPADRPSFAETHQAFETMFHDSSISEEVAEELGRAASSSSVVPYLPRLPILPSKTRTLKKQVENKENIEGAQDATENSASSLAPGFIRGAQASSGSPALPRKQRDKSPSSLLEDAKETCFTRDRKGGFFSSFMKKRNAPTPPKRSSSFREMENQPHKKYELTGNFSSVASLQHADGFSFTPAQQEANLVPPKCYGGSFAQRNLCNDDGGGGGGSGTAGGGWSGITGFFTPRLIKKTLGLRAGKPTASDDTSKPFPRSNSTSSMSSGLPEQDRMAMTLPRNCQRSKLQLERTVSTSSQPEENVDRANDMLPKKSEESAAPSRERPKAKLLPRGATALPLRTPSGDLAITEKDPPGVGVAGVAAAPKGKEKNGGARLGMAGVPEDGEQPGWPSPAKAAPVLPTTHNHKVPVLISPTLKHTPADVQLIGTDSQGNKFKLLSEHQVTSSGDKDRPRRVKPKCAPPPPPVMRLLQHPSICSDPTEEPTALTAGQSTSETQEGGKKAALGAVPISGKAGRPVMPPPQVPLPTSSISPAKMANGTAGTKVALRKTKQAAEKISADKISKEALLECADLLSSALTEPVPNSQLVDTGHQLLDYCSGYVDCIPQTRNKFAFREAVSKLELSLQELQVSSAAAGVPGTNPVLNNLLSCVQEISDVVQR
T6 sequence (P43250 whole entry): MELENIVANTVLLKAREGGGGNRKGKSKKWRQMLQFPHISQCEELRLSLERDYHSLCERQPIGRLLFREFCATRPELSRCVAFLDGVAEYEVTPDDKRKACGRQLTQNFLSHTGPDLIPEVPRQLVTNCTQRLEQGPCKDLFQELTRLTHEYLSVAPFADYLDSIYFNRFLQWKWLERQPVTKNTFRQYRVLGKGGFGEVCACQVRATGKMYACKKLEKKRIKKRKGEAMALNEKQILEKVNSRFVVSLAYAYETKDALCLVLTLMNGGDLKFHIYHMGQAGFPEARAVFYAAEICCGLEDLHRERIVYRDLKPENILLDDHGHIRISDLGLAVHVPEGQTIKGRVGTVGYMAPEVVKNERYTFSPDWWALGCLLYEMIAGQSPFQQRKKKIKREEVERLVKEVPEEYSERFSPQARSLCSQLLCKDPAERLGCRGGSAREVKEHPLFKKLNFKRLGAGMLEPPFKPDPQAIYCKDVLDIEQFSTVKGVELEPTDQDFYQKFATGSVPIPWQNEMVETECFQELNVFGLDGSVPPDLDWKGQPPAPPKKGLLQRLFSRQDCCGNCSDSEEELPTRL

CATDS (ACOX1)	CATDS (AAK1)	CATDS (ABL1)	CATDS (ABL2)	CATDS (ACAD11 [2])	potency estimated from few doses (ABCD3)	Structure (SMILES)	further results
						Cc1cc(-c2ccccn2)cc(C)c1/C=C/c1cncc(-c2nn[nH]n2)c1 [GW459057A]	potency estimated from few doses (EPHB6; read-out: Kdapp EPHB6): 162 nM; CATDSEPHB6 (EPHB6; [3]): 0.83
0	0.2295	0	0	0.1181		Cc1cc(-c2ccnc(Nc3cccc(C#N)c3)n2)cc(C)c1O [GSK1440913A]	potency estimated from few doses (AAK1): 120 nM; potency estimated from few doses (ACAD11 [1]): 425 nM
						c1ccc(-c2cnc3nccnn23)cc1 [AH20685XX]	potency estimated from few doses (GRK6): > 1000 nM
0	0	0	0	0	> 1000 nM	CCc1nc(-c2cccc(N(C)S(=O)(=O)c3ccccc3)c2)c(-c2ccnc(Nc3ccc(N4CCN(C(C)=O)CC4)nc3)n2)s1 [GSK1645895A]	
0	0.01021	0	0	0.02228		O=c1[nH]ccc2nc(N[C@@H]3CCNC3)nc(Nc3ccc4c(c3)S(=O)(=O)CC4)c12 [GSK2181306A]	potency estimated from few doses (AAK1): 800 nM; potency estimated from few doses (ACAD11 [1]): 145 nM
0	0	0	0	0	> 1000 nM	COc1ccc(Nc2nccc(N3CCC(NC(=O)Nc4ccc5c(c4)OCO5)C3)n2)cc1 (stereo not shown) [GSK1379745A]	
0	0	0	0	0	> 1000 nM	CCn1cc(-c2ccnc3[nH]c(-c4cccc(CN(C)C)c4)cc23)c(-c2ccc(NC(=O)N(C)C)cc2)n1 [GSK1070916]	
						O=C1Nc2ccc(F)cc2/C1=C/c1ccc[nH]1 [RO0272148-000]	potency estimated from few doses (FLT3; Kinobeads two-dose (100 nM and 1 µM), mixed cell lysate, read-out: Kdapp FLT3): 99 nM; CATDSFLT3 (FLT3; [3]): 0.87; potency estimated from few doses (ACOX1; Kinobeads two-dose, mixed cell lysate, read-out: Kdapp ACOX1): > 1000 nM
						Cc1cc(-c2ccco2)cc(C)c1/C=C/c1cncc(-c2nn[nH]n2)c1 [GW458344A]	potency estimated from few doses (EPHB6; read-out: apparent Kd): 401 nM; CATDS (EPHB6; target EPHB6, concentration and target dependent selectivity at the apparent Kd): 1.000
